# Test system: production of CD69 by B lymphocytes in human whole blood activated by crosslinking surface IgM
# Experiment: CD69 human whole blood assay (Example 903), FACS
# Type: cell-based
# Details: B lymphocytes activated with goat F(ab')2 anti-human IgM, read-out: CD69 Hu Blood FACS IC50
# From the text: There is good evidence that B-cells play a key role in the pathogenesis of autoimmune and/or inflammatory disease. Protein-based therapeutics that deplete B cells such as Rituxan are effective against autoantibody-driven inflammatory diseases such as rheumatoid arthritis (Rastetter et al. (2004) Annu Rev Med 55:477). CD69 is the early activation marker in leukocytes including T cells, thymocytes, B cells, NK cells, neutrophils, and eosinophils. The CD69 human whole blood assay (Example 903) determines the ability of compounds to inhibit the production of CD69 by B lymphocytes in human whole blood activated by crosslinking surface IgM with goat F(ab′)2 anti-human IgM.
row,Structure (SMILES),IC50 [nM]
1,"CC(Nc1ncnc2[nH]cnc12)c1nc2ccc(F)c(C#N)c2n1-c1ccccc1 (stereo not drawn) [Example 189, 5-Fluoro-3-phenyl-2-[1-(9H-purin-6-ylamino)-ethyl]-3H-benzoimidazole-4-carbonitrile]",39.5

# Same assay, conditions: Homo sapiens, Lymphocyte, B lymphocytes activated with goat F(ab')2 anti-human IgM, read-out: CD69 Hu Blood FACS IC50
row,Structure (SMILES),IC50 [nM]
1,"C[C@H](Nc1ncnc(N)c1C#N)c1nc2ccc(F)c(CC#N)c2n1-c1ccccc1 [Example 345, 4-Amino-6-[(S)-1-(7-cyanomethyl-6-fluoro-1-phenyl-1H-benzoimidazol-2-yl)-ethylamino]-pyrimidine-5-carbonitrile]",2.91
2,"C[C@H](Nc1ncnc2[nH]cnc12)c1nc2ccc(F)c(C3CC3)c2n1-c1ccccn1 [Example 274, [(S)-1-(7-Cyclopropyl-6-fluoro-1-pyridin-2-yl-1H-benzoimidazol-2-yl)-ethyl]-(9H-purin-6-yl)-amine]",26.8
3,"OCC[C@H](Nc1ncnc2[nH]cnc12)c1nc2ccc(F)cc2n1-c1ccccn1 [Example 304, (S)-3-(6-Fluoro-1-pyridin-2-yl-1H-benzoimidazol-2-yl)-3-(9H-purin-6-ylamino)-propan-1-ol]",172
4,"C[C@H](Nc1ncnc2[nH]cnc12)c1nc2ccc(F)cc2n1-c1ccn(C)n1 [Example 403, N-[(1S)-1-[6-fluoro-1-(1-methylpyrazol-3-yl)benzimidazol-2-yl]ethyl]-9H-purin-6-amine]",163
5,"COc1ccc(-n2c(C(C)Nc3ncnc4[nH]cnc34)nc3ccc(F)cc32)cn1 (stereo not drawn) [Example 207, {1-[6-Fluoro-1-(6-methoxy-pyridin-3-yl)-1H-benzoimidazol-2-yl]-ethyl}-(9H-purin-6-yl)-amine]",798
6,"C[C@H](Nc1ncnc(N)c1C#N)c1nc2ccc(F)c(C#N)c2n1-c1cncc(F)c1 [Example 347, 2-[(S)-1-(6-Amino-5-cyano-pyrimidin-4-ylamino)-ethyl]-5-fluoro-3-(5-fluoro-pyridin-3-yl)-3H-benzoimidazole-4-carbonitrile]",158
7,"CC(C)C(Nc1ncnc2[nH]cnc12)c1nc2ccc(F)cc2n1-c1cccnc1 (stereo not drawn) [Example 206, [1-(6-Fluoro-1-pyridin-3-yl-1H-benzoimidazol-2-yl)-2-methyl-propyl]-(9H-purin-6-yl)-amine]",54.7
8,"C[C@H](Nc1ncnc2[nH]cnc12)c1nc2cccc(C#N)c2n1-c1ccccc1 [Example 279, 3-Phenyl-2-[(S)-1-(9H-purin-6-ylamino)-ethyl]-3H-benzoimidazole-4-carbonitrile]",184
9,"CC(Nc1ncnc2[nH]cnc12)c1nc2ccc(F)cc2n1-c1ccccc1 (stereo not drawn) [Example 194, [1-(6-Fluoro-1-phenyl-1H-benzoimidazol-2-yl)-ethyl]-(9H-purin-6-yl)-amine]",50.8
10,"C[C@H](Nc1ncnc(N)c1C#N)c1nc2ccc(F)c(C#N)c2n1-c1ccccc1 [Example 330, 2-[(S)-1-(6-Amino-5-cyano-pyrimidin-4-ylamino)-ethyl]-5-fluoro-3-phenyl-3H-benzoimidazole-4-carbonitrile]",12.9
11,"C[C@H](Nc1ncnc2[nH]cnc12)c1nc2ccc(F)cc2n1-c1cccc(F)c1 [Example 185, {(S)-1-[6-Fluoro-1-(3-fluoro-phenyl)-1H-benzoimidazol-2-yl]-ethyl}-(9H-purin-6-yl)-amine]",52.1
12,"C[C@H](Nc1ncnc2[nH]cnc12)c1nc2ccc(Cl)cc2n1-c1ccccc1 [Example 173, [(S)-1-(6-Chloro-1-phenyl-1H-benzoimidazol-2-yl)-ethyl]-(9H-Aurin-6-yl)-amine]",301
13,"C[C@H](Nc1ccncc1C#N)c1nc2ccc(F)cc2n1-c1ccccc1 [Example 312, 4-[(S)-1-(6-Fluoro-1-phenyl-1H-benzoimidazol-2-yl)-ethylamino]-nicotinonitrile]",3900
14,"C[C@H](Nc1ncnc(N)c1C#N)c1nc2ccc(F)cc2n1-c1ccccn1 [Example 275, 4-Amino-6-[(S)-1-(6-fluoro-1-pyridin-2-yl-1H-benzoimidazol-2-yl)-ethylamino]-pyrimidine-5-carbonitrile]",27.5
15,"CC(Nc1ncnc2[nH]cnc12)c1nc2ccc(F)c(C3CC3)c2n1-c1ccccc1 (stereo not drawn) [Example 198, [1-(7-Cyclopropyl-6-fluoro-1-phenyl-1H-benzoimidazol-2-yl)-ethyl]-(9H-purin-6-yl)-amine]",10.9
16,"CC(Nc1ncnc2[nH]cnc12)c1nc2ccc(F)c(Cl)c2n1-c1ccccc1 (stereo not drawn) [Example 179, [1-(7-Chloro-6-fluoro-1-phenyl-1H-benzoimidazol-2-yl)-ethyl]-(9H-purin-6-yl)-amine]",146
17,"C[C@H](Nc1ncnc2[nH]cnc12)c1nc2ccc(F)cc2n1[C@@H]1CCCN(CCO)C1 [Example 256, 2-((R)-3-{6-Fluoro-2-[(S)-1-(9H-purin-6-ylamino)-ethyl]-benzoimidazol-1-yl}-piperidin-1-yl)-ethanol]",68.3
18,"C[C@H](Nc1ncnc2[nH]cnc12)c1nc2ccc(F)cc2n1[C@H]1C[C@@H](O)C1 [Example 390, 3-[6-fluoro-2-[(1S)-1-(9H-purin-6-ylamino)ethyl]benzimidazol-1-yl]cyclobutanol]",146
19,"COC[C@H](Nc1ncnc2[nH]cnc12)c1nc2ccc(F)c(C)c2n1-c1ccccc1 [Example 188, [(R)-1-(6-Fluoro-7-methyl-1-phenyl-1H-benzoimidazol-2-yl)-2-methoxy-ethyl]-(9H-purin-6-yl)-amine]",149
20,"CC(C)N1CC(n2c([C@H](C)Nc3ncnc4[nH]cnc34)nc3ccc(F)cc32)C1 [Example 380, N-[(1S)-1-[6-fluoro-1-(1-isopropylazetidin-3-yl)benzimidazol-2-yl]ethyl]-9H-purin-6-amine]",58.2
21,"C[C@H](Nc1ncnn2ccnc12)c1nc2ccc(F)cc2n1-c1ccccn1 [Example 322, [(S)-1-(6-Fluoro-1-pyridin-2-yl-1H-benzoimidazol-2-yl)-ethyl]-imidazo[2,1-f][1,2,4]triazin-4-yl-amine]",145
22,"CC(Nc1ncnc2[nH]cnc12)c1nc2ccc(F)c(C(=O)N(C)C)c2n1-c1ccccc1 (stereo not drawn) [Example 204, 5-Fluoro-3-phenyl-2-[1-(9H-purin-6-ylamino)-ethyl]-3H-benzoimidazole-4-carboxylic acid dimethylamide]",67.5
23,"C[C@H](Nc1ncncc1C#N)c1nc2ccc(F)cc2n1-c1ccccc1 [Example 316, 4-[(S)-1-(6-Fluoro-1-phenyl-1H-benzoimidazol-2-yl)-ethylamino]-pyrimidine-5-carbonitrile]",481
24,"CC[C@H](Nc1ncnc2[nH]cnc12)c1nc2ccc(F)cc2n1-c1ccccn1 [Example 247, [(S)-1-(6-Fluoro-1-pyridin-2-yl-1H-benzoimidazol-2-yl)-propyl]-(9H-purin-6-yl)-amine]",405
25,"C[C@H](Nc1ncnc(N)c1C#N)c1nc2ccc(F)c(-c3ccccn3)c2n1C1CC1 [Example 442, 4-Amino-6-[(S)-1-(1-cyclopropyl-6-fluoro-7-pyridin-2-yl-1H-benzoimidazol-2-yl)ethylamino]-pyrimidine-5-carbonitrile]",797
26,"CC(Nc1ncnc2[nH]cnc12)c1nc2ccc(F)cc2n1-c1ccccc1F (stereo not drawn) [Example 195, {1-[6-Fluoro-1-(2-fluoro-phenyl)-1H-benzoimidazol-2-yl]-ethyl}-(9H-purin-6-yl)-amine]",53

# Source: patent US8653089B2, “Heterocyclic compounds and methods of use” (F. Hoffmann-La Roche AG, priority 2011, dated 2014)
